Data from US20250339419A1, “METHODS OF TREATING OCULAR INFLAMMATORY DISEASES” (priority 2021, published 2025).
Values joined by “and” are separate entries in the source; they are usually repeats but may differ in a detail not shown here. Identical values can stand only once. “Also recorded” adds a separate entry of the source. Like-named read-outs stand apart in the source and are kept apart here. Values belong to the molecule of their own block, whether it stands above or below them.

Key:
[1] = Phase 1 double-masked multiple-dose plasma PK study of roflumilast topical ophthalmic suspension (0.3%); format: in vivo, human; details: for plasma profile, fluctuation between peak (Cmax) and trough (pre-dose): Day 8; for accumulation ratios (RAUC0-12): by Day 8, mean (SD)
Description: A pharmacokinetic (PK) study of a roflumilast topical ophthalmic suspension was conducted. Data at Day 1 (Example 15), Day 8 (Example 16), and comparative data (Example 17) is provided.
The study was a Phase 1, double-masked, multiple-dose study conducted in healthy volunteers. The multiple-dose study was conducted over a single dose level where participants were randomly assigned to receive a masked dose of roflumilast topical ophthalmic suspension eye drops (n=14) or vehicle only (n=2) as set forth in Table 7, administered as a single drop in each eye BID (twice daily, every 12 hours) for seven days, followed by a single morning dose on Day 8.
Blood samples were collected at multiple time points on Days 1, 2, 8, and 9. The following nominal blood sampling time points were used for the PK assessment of roflumilast topical ophthalmic suspension and its main active metabolite on days 1 and 8:
Roflumilast topical ophthalmic suspension and roflumilast n-oxide (metabolite) concentrations in plasma were evaluated using Phoenix™ WinNonlin® version and 8.4 (Pharsight Corporation, USA). For both analytes, the upper limit of quantification (ULOQ) was […] and the lower limit of quantification (LLOQ) was […].
Analysis Procedures: Actual collection times were used for PK parameter determinations, calculated with respect to the dose time. Time points preceding Cmax, the first measurable concentration that was BLOQ were set to zero for PK parameter determination. Where the final plasma concentration was BLOQ, the concentration at the preceding time point was deemed to be the last measurable concentration for calculation of λz. AUC parameters were determined by the linear-up, log-down trapezoidal rule. λz was determined by log-linear regression obtained on at least the 3 last quantifiable concentrations (not including Cmax); the default “best fit” method by Phoenix WinNonlin was used for the selection of slopes to determine λz. In addition, every PK profile was scrutinized visually and adjustments made to the slope selection, where necessary. The goodness of fit of the regression was evaluated using the square of the correlation coefficient (adjusted R2) which was required to be at least 0.8 for the λz l value to be considered reliable. Regression-based parameters (AUC0-inf, t1/2) were calculated if the adjusted R2 value of the regression line was greater than or equal to 0.8 and residual area <20%. The time point where the ln-linear λz calculation begins (Lower) and the actual sampling time of the last measurable concentration used to estimate the λz (λz Upper) as well as the R2-adjusted for the ln-linear regression for the calculation of the elimination rate constant were listed.

[2] = set-up: AUC 0-∞: unit not given beside the values; details: Observed PO (Day 1), single 500 μg dose; cited from earlier work
[3] = plasma, Day 8, mean (SD), topical ocular 0.3% BID 7 days + morning dose

SMILES: O=C(Nc1c(Cl)c[n+]([O-])cc1Cl)c1ccc(OC(F)F)c(OCC2CC2)c1 [Roflumilast N-oxide, 3-cyclopropylmethoxy-4-difluoromethoxy-N-(3,5-dichloropyrid-4-yl 1-oxide)benzamide]
- mean plasma profile ([1]; Day 1, FIGS. 14-17): increased over the 12 hours post-first dose
- plasma levels relative to roflumilast ([1]; Day 1, FIGS. 16-17): consistently higher than roflumilast after 2 hours
- plasma profile, fluctuation between peak (Cmax) and trough (pre-dose) [1]: very stable, showing little fluctuation
- mean peak plasma profile relative to parent ([1]; Day 8, FIGS. 22-23): consistently higher than that of the parent
- PTF % (percent peak-to-trough fluctuation) ([1]; Day 8, mean (SD)): 0.287 (0.223) %
- RAUC0-12 (accumulation ratio) ([1]; Day 8, mean (SD)): 9.25 (2.92)
- accumulation ratios (RAUC0-12) [1]: 9.25
- C12 ([1]; plasma, Day 1, mean, 12 hr post-first dose): 1.37 ng/mL
- AUC0-t ([1]; plasma, Day 1, mean, to 12 hr post-first dose): 9.38 ng·h/mL
- Clast ([1]; plasma, Day 1, mean, to 24 hr post-first dose): 3.49 ng/mL
- Cmax ([1]; plasma, Day 1, mean, 0.3% suspension 1 drop each eye BID): 1.38 ng/mL
- Tmax ([1]; plasma, Day 1, median): 11.83 h
- AUC0-t ([1]; plasma, Day 8, mean (SD)): 156 (79.3) h*ng/mL
- AUC0-tau ([1]; plasma, Day 8, mean (SD)): 78.4 (39.4) h*ng/mL
- AUC24 ([1]; plasma, Day 8, mean (SD)): 149 (77.4)** h*ng/mL
- C12 trough ([1]; plasma, Day 8, mean (SD)): 6.33 (3.35) ng/mL
- Cavg ([1]; plasma, Day 8, mean (SD)): 6.53 (3.29) ng/mL
- Cmax [1, 3]: 7.93 (3.88) ng/mL
- Tmax ([1]; plasma, Day 8, median): 1.00 h

- accumulation from the AM to the PM dose (C12 vs Clast) ([1]; Day 1): ~2 fold
- plasma profile, fluctuation between peak (Cmax) and trough (pre-dose) [1]: very stable, showing little fluctuation
- PTF % (percent peak-to-trough fluctuation) ([1]; Day 8, mean (SD)): 0.893 (0.446) %
- RAUC0-12 (accumulation ratio) ([1]; Day 8, mean (SD)): 2.63 (1.39)
- AUC0-tau Geometric Mean Ratio (Day 8/Day 1) (90% CI) ([1]; Group 1): 2.37 (1.90-2.94)
- C12 (trough) Difference in LS Means (Day 8 − Day 1) (90% CI) ([1]; Group 1): 0.66 (0.45-0.86)
- C12 (trough) Geometric Mean Ratio (Day 8/Day 1) (90% CI) ([1]; Group 1): 1.93 (1.57-2.37)
- Cmax Geometric Mean Ratio (Day 8/Day 1) (90% CI) ([1]; Group 1): 1.79 (1.41-2.27)
- C12 (trough) LS Means ([1]; Group 1, Day 1, n 14): −1.44
- C12 (trough) LS Means ([1]; Group 1, Day 8, n 14): −0.78
- accumulation ratios (RAUC0-12) [1]: 2.63
- AUC ([1]; human, plasma, other: topical ophthalmic eye drops, 0.3 % suspension, single drop in each eye BID, Group 1, Day 1, read-out: AUC0-tau Geometric Mean): 2.91 ng·h/mL
- concentration at 12 h ([1]; human, plasma, other: topical ophthalmic eye drops, 0.3 % suspension, single drop in each eye BID, Group 1, Day 1, read-out: C12 (trough) Geometric Mean): 0.24 ng/mL
- Cmax ([1]; human, plasma, other: topical ophthalmic eye drops, 0.3 % suspension, single drop in each eye BID, Group 1, Day 1, read-out: Cmax Geometric Mean): 0.47 ng/mL
- AUC ([1]; human, plasma, other: topical ophthalmic eye drops, 0.3 % suspension, single drop in each eye BID, Group 1, Day 8, read-out: AUC0-tau Geometric Mean): 6.88 ng·h/mL
- concentration at 12 h ([1]; human, plasma, other: topical ophthalmic eye drops, 0.3 % suspension, single drop in each eye BID, Group 1, Day 8, read-out: C12 (trough) Geometric Mean): 0.46 ng/mL
- Cmax ([1]; human, plasma, other: topical ophthalmic eye drops, 0.3 % suspension, single drop in each eye BID, Group 1, Day 8, read-out: Cmax Geometric Mean): 0.85 ng/mL
- concentration at 12 h ([1]; human, plasma, other: topical ophthalmic eye drops, 0.3 % suspension, single drop in each eye BID, plasma, Day 1, mean, 12 hr post-first dose, read-out: C12): 0.29 ng/mL
- AUC0-t ([1]; human, plasma, other: topical ophthalmic eye drops, 0.3 % suspension, single drop in each eye BID, plasma, Day 1, mean, to 12 hr post-first dose, read-out: AUC0-t): 3.6 ng·h/mL
- concentration at 24 h ([1]; human, plasma, other: topical ophthalmic eye drops, 0.3 % suspension, single drop in each eye BID, plasma, Day 1, mean, to 24 hr post-first dose, read-out: Clast): 0.51 ng/mL
- Cmax ([1]; human, plasma, other: topical ophthalmic eye drops, 0.3 % suspension, single drop in each eye BID, plasma, Day 1, mean, 0.3% suspension 1 drop each eye BID, read-out: Cmax): 0.59 ng/mL
- Tmax ([1]; human, plasma, other: topical ophthalmic eye drops, 0.3 % suspension, single drop in each eye BID, plasma, Day 1, median, read-out: Tmax): 2 h
- AUC0-t ([1]; human, plasma, other: topical ophthalmic eye drops, 0.3 % suspension, single drop in each eye BID, plasma, Day 8, mean (SD), read-out: AUC0-t): 12.8 ng·h/mL
- AUC ([1]; human, plasma, other: topical ophthalmic eye drops, 0.3 % suspension, single drop in each eye BID, plasma, Day 8, mean (SD), read-out: AUC0-tau): 7.6 ng·h/mL
- AUC ([1]; human, plasma, other: topical ophthalmic eye drops, 0.3 % suspension, single drop in each eye BID, plasma, Day 8, mean (SD), read-out: AUC24): 12.8 ng·h/mL
- concentration at 12 h ([1]; human, plasma, other: topical ophthalmic eye drops, 0.3 % suspension, single drop in each eye BID, plasma, Day 8, mean (SD), read-out: C12 trough): 0.5 ng/mL
- Tmax ([1]; human, plasma, other: topical ophthalmic eye drops, 0.3 % suspension, single drop in each eye BID, plasma, Day 8, median, read-out: Tmax): 1 h
- Cmax ([1]; human, plasma, topical or ocular, 0.3 % suspension, single drop in each eye BID, plasma, Day 8, mean (SD), topical ocular 0.3% BID 7 days + morning dose, read-out: Cmax): 0.94 ng/mL
- Cavg ([1]; plasma, Day 8, mean (SD)): 0.63 (0.30) ng/mL
- Cmax [1, 3]: 0.94 (0.46) ng/mL
SMILES: O=C(Nc1c(Cl)cncc1Cl)c1ccc(OC(F)F)c(OCC2CC2)c1 [Roflumilast, N-(3,5-dichloropyrid-4-yl)-3-cyclopropylmethoxy-4-difluoromethoxybenzamide]
- plasma concentrations, topical ocular route compared to oral (PO) administration ([1]; FIGS. 24-26): lower than those of PO-administered roflumilast; also recorded: significantly lower, producing a flatter concentration-time profile without a distinct Cmax peak
- AUC 0-∞ [2]: 37.2 and 32.86
- Plasma Cmax [2]: 8.3 ng/mL
